Marks after values point to notes of the source that are not given here.
How the values were obtained:
[1] = test system: carrageenan-induced paw oedema; assay: Carrageenan-induced rat paw oedema; type: in vivo; conditions: 50 mg/kg oral; for %Inhibition of paw oedema, 1h / Paw thickness change mean ± SEM, 1h: 1 h after carrageenan; for %Inhibition of paw oedema, 3h / Paw thickness change mean ± SEM, 3h: 3 h after carrageenan; for Paw thickness change mean ± SEM, 3h / Paw thickness change mean ± SEM, 1h / Paw thickness change mean ± SEM, 5h: n = 4; for %Inhibition of paw oedema, 5h / Paw thickness change mean ± SEM, 5h: 5 h after carrageenan
Procedure: Female wister rats (150-200 g) were used in this study. The animals were kept at controlled conditions (temperature 23 ± 2 °C, humidity 60 ± 10%) and a 12/12-h light/dark cycle with access to food and water. All procedures relating to animal care and treatments were performed according to protocols approved by the Research Ethical Committee of Faculty of Pharmacy Beni-Suef University (2014-Beni-Suef, Egypt). The anti-inflammatory activity of the synthesised compounds was determined in vivo by […]-induced paw oedema method in rats[49]. Rats were divided into 21 groups of four animals each, and then, they were fasted overnight with free access to water before the experiment. Before any drug administration, thickness of the left hind paw of each rat was measured in millimetres. Group 1 served as a control and administered the vehicle (2.5% Tween 80).

ovine COX-1 = target: T1, ovine COX-1 (Ovis aries, UniProt P05979); assay: In vitro COX-1 inhibition assay (EIA kit, Cayman)
T1 sequence (P05979 25-600): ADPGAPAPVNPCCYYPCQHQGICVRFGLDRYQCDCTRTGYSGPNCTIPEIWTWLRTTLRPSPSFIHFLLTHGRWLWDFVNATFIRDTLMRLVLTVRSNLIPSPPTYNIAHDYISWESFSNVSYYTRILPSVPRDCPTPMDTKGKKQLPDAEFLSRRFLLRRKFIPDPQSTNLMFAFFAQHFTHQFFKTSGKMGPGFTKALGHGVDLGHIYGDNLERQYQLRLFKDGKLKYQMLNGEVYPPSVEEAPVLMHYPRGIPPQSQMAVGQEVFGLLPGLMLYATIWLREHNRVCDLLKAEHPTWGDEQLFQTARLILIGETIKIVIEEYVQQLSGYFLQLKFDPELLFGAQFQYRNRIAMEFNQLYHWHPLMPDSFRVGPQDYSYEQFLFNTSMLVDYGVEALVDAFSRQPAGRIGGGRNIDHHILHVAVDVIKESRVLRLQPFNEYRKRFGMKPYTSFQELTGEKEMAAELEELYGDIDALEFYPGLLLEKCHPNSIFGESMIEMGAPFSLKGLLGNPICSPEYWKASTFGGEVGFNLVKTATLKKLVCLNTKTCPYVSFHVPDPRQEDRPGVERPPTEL
Procedure: (§1) The peroxidase activity of cyclooxygenase enzyme isoforms was measured using the COX activity assay kit. The ability of the test compounds to inhibit both ovine COX-1 and COX-2 enzymes was explored in vitro using a colorimetric enzyme immunoassay (EIA) kit. The appearance of oxidised N,N,N′,N′-tetramethyl-p-phenylenediamine (TMPD) was monitored at 590 nm. The kit includes isozyme-specific inhibitors for distinguishing COX-2 activity from that of COX-1.

ovine COX-2 = target: T2, ovine COX-2 (Ovis aries, UniProt P79208); assay: In vitro COX-2 inhibition assay (EIA kit, Cayman); conditions: for IC50: IC50 COX-2, ovine COX-2, mean of two determinations; for SI, COX-2 selectivity index (COX-1 IC50/COX-2 IC50): ovine enzymes
T2 sequence (P79208 17-603): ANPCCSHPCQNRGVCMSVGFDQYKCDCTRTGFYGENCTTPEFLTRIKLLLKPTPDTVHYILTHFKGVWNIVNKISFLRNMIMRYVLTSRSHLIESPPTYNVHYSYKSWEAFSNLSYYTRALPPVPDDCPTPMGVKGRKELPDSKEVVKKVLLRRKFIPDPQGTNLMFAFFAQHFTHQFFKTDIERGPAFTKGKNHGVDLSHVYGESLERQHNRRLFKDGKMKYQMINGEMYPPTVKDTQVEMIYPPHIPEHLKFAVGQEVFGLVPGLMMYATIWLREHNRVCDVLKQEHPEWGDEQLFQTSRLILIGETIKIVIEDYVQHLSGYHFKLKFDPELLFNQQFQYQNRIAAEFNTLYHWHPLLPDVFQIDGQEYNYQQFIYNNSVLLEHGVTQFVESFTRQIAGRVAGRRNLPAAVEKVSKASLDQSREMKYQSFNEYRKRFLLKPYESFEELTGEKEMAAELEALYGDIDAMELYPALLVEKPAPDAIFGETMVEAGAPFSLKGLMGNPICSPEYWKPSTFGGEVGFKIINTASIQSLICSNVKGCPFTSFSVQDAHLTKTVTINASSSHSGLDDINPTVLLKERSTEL
Procedure: as §1

[2] = test system: gastric mucosa (ulcer number, ulcer index); assay: Ulcerogenic liability; type: in vivo, rat; conditions: 50 mg/kg oral, three successive days, rats; for Ulcer index: sum of % incidence, average severity and average number of ulcers
Procedure: Female wister rats (150–200 g) were used in this study. The animals were kept at controlled conditions (temperature 23 ± 2 °C, humidity 60 ± 10%) and a 12/12-h light/dark cycle with access to food and water. All procedures relating to animal care and treatments were performed according to protocols approved by the Research Ethical Committee of Faculty of Pharmacy Beni-Suef University (2014-Beni-Suef, Egypt).
[…]. Forty-eight rats were used in this study, divided into 12 groups and fasted for 18 h before drug administration. The control group received the vehicle (2.5% Tween 80). Other groups received test compounds, celecoxib or indomethacin at a dose of 50 mg/kg, then animals were fed after 2 h. Rats were given the specified dose orally for three successive days. Rats were sacrificed after 2 h of the last dose, then the stomach of each rat was removed and opened along the greater curvature for determination of the ulcer number and ulcer index according to the reported method.

rat's gastric tissue = assay: Histopathological investigation of stomach; type: in vivo; conditions: haematoxylin and eosin, after ulcerogenic liability dosing
Procedure: Whole rats stomach were collected, selected stomach samples from each rat were fixed in 10% neutral buffered formalin for 48 h and routinely processed for paraffin embedding. 5 μm Thickness sections were obtained then stained with haematoxylin and eosin for histopathological evaluation.

Structure (SMILES)	IC50 (ovine COX-1) [nM]	IC50 (ovine COX-2) [nM]	SI, COX-2 selectivity index (COX-1 IC50/COX-2 IC50) (ovine COX-2)	melting point [°C]	%Inhibition of paw oedema, 1h [1] [%]	%Inhibition of paw oedema, 3h [1] [%]	Paw thickness change mean ± SEM, 3h [1] [mm]	Paw thickness change mean ± SEM, 1h [1] [mm]	%Inhibition of paw oedema, 5h [1] [%]	Paw thickness change mean ± SEM, 5h [1] [mm]	Average number of ulcers [2]	Ulcer index [2]	Ulcer index ([2]; listed as indomethacin)	Histopathological findings in stomach (rat's gastric tissue)
COc1ccc(/C=C/C(=O)c2ccc(-n3cnnn3)cc2)cc1OC [Compound 3a, (ZE)-1-[4-(1H-Tetrazol-1-yl)phenyl]-3-(3,4-dimethoxyphenyl)prop-2-en-1-one]	12500	570	22	214 to 216	25	9	1.53 ± 0.09	–	–	–	–	–	–	–
COc1cc(/C=C/C(=O)c2ccc(-n3cnnn3)cc2)cc(OC)c1OC [Compound 3b, (ZE)-1-[4-(1H-Tetrazol-1-yl)phenyl]-3-(3,4,5-trimethoxyphenyl)prop-2-en-1-one]	6740	240	28.08	215 to 217	54	13	1.45 ± 0.18	0.73 ± 0.08	0	1.33 ± 0.08	–	–	–	–
N#Cc1c(-c2ccccc2)cc(-c2ccc(-n3cnnn3)cc2)nc1N [Compound 4a, 6-[4-(1H-Tetrazol-1-yl)phenyl]-2-amino-4-phenylnicotinonitrile]	6230	430	14.48	238 to 240	51	10	1.50 ± 0.19	0.78 ± 0.08	0	1.33 ± 0.05	–	–	–	–
N#Cc1c(-c2cccnc2)cc(-c2ccc(-n3cnnn3)cc2)nc1N [Compound 4b, 6′-[4-(1H-Tetrazol-1-yl)phenyl]-2′-amino-[3,4′-bipyridine]-3′-carbonitrile]	6110	270	22.62	238 to 240	19	9	1.53 ± 0.08	1.28 ± 0.10	4	1.28 ± 0.14	–	–	–	–
N#Cc1c(-c2cccnc2)cc(-c2ccc(-n3cnnn3)cc2)nc1O [Compound 5b, 6′-[4-(1H-Tetrazol-1-yl)phenyl]-2′-hydroxy-[3,4′-bipyridine]-3′-carbonitrile]	12400	1140	10.88	287 to 289	38	33	1.13 ± 0.15	0.98 ± 0.18	17	1.10 ± 0.15	–	–	–	–
COc1ccc2c(c1)c(CC(=O)O)c(C)n2C(=O)c1ccc(Cl)cc1 [Indomethacin, reference compound]	–	–	–	–	–	–	–	–	–	–	14.25***	22.50***	22.5	Complete disruption of protective mucosal layer

Continued, in another order:

IC50 (ovine COX-1) [nM]	IC50 (ovine COX-2) [nM]	SI, COX-2 selectivity index (COX-1 IC50/COX-2 IC50) (ovine COX-2)	melting point [°C]	Structure (SMILES)	%Inhibition of paw oedema, 1h [1] [%]	%Inhibition of paw oedema, 3h [1] [%]	Paw thickness change mean ± SEM, 3h [1] [mm]	Paw thickness change mean ± SEM, 1h [1] [mm]	%Inhibition of paw oedema, 5h [1] [%]	Paw thickness change mean ± SEM, 5h [1] [mm]	Average number of ulcers [2]	Ulcer index [2]	Ulcer index ([2]; listed as indomethacin)	Histopathological findings in stomach (rat's gastric tissue)
11200	710	15.81	> 300	COc1ccc(-c2cc(-c3ccc(-n4cnnn4)cc3)[nH]c(=O)c2C#N)cc1 [Compound 5c, 6-[4-(1H-Tetrazol-1-yl)phenyl]-4-(4-methoxyphenyl)-2-oxo-1,2-dihydropyridine-3-carbonitrile]	57	30	1.18 ± 0.11	0.68 ± 0.09	14	1.15 ± 0.05	–	–	–	–
9210	380	24.23	258 to 260	C/C(=N\Nc1ccc(S(C)(=O)=O)cc1)c1ccc(-n2cnnn2)cc1 [Compound 6a, (ZE)-1-{4-[1-(2-(4-Methanesulphonylphenyl)hydrazono)ethyl]phe-nyl}-1H-tetrazole]	30	42	0.98 ± 0.23	1.10 ± 0.23	4	1.28 ± 0.08	–	–	–	–
12900	510	25.27	255 to 257	C/C(=N\Nc1ccc(S(N)(=O)=O)cc1)c1ccc(-n2cnnn2)cc1 [Compound 6b]	–	37	1.05 ± 0.09	0.80 ± 0.26	12	1.18 ± 0.13	–	–	–	–
3450	260	13.26	112 to 114	COc1ccc(/C=C/C(=O)c2ccc(NC#N)cc2)cc1OC [Compound 7a, (ZE)-N-{4-[3–(3,4-Dimethoxyphenyl)acryloyl]phenyl}cyanamide]	24	22	1.30 ± 0.15	1.20 ± 0.11	0	1.33 ± 0.08	–	–	–	–
3520	240	14.66	109 to 111	COc1cc(/C=C/C(=O)c2ccc(NC#N)cc2)cc(OC)c1OC [Compound 7b, (ZE)-N-{4-[3–(3,4,5-Trimethoxyphenyl)acryloyl]phenyl}cyanamide]	32	43	0.95 ± 0.17	1.08 ± 0.11	0	1.33 ± 0.08	–	–	–	–

Reference: article PMC6445242, “Novel tetrazole and cyanamide derivatives as inhibitors of cyclooxygenase-2 enzyme: design, synthesis, anti-inflammatory evaluation, ulcerogenic liability and docking study” (Journal of Enzyme Inhibition and Medicinal Chemistry, 2017)
